Experiment [1] deals with Monoamine transporters; serotonin & dopamine (Rattus norvegicus) (UniProt P31652+P23977). Nature of the experiment: Relative binding affinity for serotonin and dopamine transporters, ratio of IC50. In kind it is protein assay.
Experiment [2] has as its target Sodium-dependent serotonin transporter (Rattus norvegicus, UniProt P31652). Nature of the experiment: Inhibition of [3H]citalopram binding to serotonin transporter of rat cerebral cortex. In kind it is tissue-based.
The target of experiment [3] is T1, Sodium-dependent dopamine transporter (Rattus norvegicus, UniProt P23977). Nature of the experiment: Inhibition of [3H]WIN-35428 binding to dopamine transporter of rat striatum. The format is tissue-based.
Experiment [4] concerns the target Monoamine transporters; Norepininephrine & dopamine (Rattus norvegicus) (UniProt P23977+Q9WTR4). Nature of the experiment: Relative binding affinity for norepinephrine and dopamine transporter, ratio of IC50. The format is protein assay.
The target of experiment [5] is Norepinephrine transporter (Rattus norvegicus, UniProt Q9WTR4). Nature of the experiment: Inhibition of [3H]nisoxetine binding to norepinephrine transporter of rat cerebral cortex. In kind it is tissue-based.
Experiment [6] deals with Sodium-dependent dopamine transporter (Rattus norvegicus) (UniProt P23977). Nature of the experiment: Ratio of IC50 for [3H]DA uptake to and dopamine transporter binding.
Experiment [7] concerns the target T1, Sodium-dependent dopamine transporter. Nature of the experiment: Concentration required to inhibit [3H]DA (dopamine) uptake into rat striatal synaptosomes. The format is functional, subcellular, Brain.

Chain of Sodium-dependent dopamine transporter (Rattus norvegicus) (P23977 whole entry): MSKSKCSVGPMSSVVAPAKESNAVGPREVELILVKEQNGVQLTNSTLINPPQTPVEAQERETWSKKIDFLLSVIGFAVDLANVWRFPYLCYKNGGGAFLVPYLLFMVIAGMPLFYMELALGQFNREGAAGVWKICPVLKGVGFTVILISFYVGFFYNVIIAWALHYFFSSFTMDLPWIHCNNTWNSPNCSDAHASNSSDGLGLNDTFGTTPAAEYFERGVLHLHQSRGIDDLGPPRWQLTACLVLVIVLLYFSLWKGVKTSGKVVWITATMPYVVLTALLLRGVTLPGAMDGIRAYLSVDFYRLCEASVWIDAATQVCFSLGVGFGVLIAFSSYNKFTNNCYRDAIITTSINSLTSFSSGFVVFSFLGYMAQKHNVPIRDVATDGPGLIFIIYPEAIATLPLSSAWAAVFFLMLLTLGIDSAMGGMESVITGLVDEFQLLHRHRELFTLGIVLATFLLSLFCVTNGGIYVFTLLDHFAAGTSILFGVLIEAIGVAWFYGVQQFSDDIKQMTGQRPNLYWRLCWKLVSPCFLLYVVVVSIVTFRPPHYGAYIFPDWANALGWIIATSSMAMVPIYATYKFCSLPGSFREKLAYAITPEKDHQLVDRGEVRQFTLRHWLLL
Chain of Monoamine transporters; serotonin & dopamine (Rattus norvegicus) (P23977 whole entry, looked up): as the sequence (P23977 whole entry) above
Chain of Monoamine transporters; serotonin & dopamine (Rattus norvegicus) (P31652 whole entry, looked up): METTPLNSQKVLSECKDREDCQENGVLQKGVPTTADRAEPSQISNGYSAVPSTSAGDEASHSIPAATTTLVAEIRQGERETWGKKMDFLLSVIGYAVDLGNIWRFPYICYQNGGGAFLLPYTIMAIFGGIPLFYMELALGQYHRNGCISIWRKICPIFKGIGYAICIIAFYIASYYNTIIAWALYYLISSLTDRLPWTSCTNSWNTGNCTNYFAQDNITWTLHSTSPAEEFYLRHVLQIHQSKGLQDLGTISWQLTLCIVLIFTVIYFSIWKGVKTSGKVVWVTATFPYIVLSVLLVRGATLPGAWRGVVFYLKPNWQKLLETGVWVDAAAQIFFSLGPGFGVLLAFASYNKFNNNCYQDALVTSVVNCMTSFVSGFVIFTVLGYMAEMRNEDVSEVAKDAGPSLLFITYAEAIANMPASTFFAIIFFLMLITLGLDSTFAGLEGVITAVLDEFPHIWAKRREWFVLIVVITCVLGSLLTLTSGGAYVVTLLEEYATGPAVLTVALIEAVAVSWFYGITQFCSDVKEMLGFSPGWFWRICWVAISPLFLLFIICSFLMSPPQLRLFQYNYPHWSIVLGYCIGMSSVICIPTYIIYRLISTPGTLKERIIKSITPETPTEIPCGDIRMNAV
T1 sequence (P23977 whole entry): as the sequence (P23977 whole entry) above
Chain of Norepinephrine transporter (Q9WTR4 whole entry): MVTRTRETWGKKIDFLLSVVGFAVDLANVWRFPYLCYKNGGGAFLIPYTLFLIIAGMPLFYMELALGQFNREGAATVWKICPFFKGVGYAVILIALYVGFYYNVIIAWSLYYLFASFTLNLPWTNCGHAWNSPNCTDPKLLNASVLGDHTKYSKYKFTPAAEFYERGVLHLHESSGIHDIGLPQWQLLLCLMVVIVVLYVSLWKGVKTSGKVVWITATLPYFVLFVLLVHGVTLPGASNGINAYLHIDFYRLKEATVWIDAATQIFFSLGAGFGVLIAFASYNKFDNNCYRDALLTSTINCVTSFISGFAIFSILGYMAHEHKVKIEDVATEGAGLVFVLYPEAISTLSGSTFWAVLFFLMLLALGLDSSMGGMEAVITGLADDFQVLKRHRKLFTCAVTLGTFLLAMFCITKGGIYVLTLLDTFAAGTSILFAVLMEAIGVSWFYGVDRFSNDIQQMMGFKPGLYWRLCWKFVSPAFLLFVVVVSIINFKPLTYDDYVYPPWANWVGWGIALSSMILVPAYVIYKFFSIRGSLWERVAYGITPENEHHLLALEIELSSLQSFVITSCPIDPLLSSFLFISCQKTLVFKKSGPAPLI
Chain of Sodium-dependent serotonin transporter (P31652 whole entry): as the sequence (P31652 whole entry, looked up) above

Regarding `O=S(=O)(Nc1ccc(CN2CCN3CC2CCC3C(c2ccccc2)c2ccccc2)cc1)c1ccc(Cl)cc1` (stereo unspecified), the Selectivity came to 11 in experiment [1] and 9 in experiment [4]. Moreover, the IC50 in experiment [2] amounted to 4130 nM; in experiment [3], 371 nM; in experiment [5], 3480 nM.

As for `COc1ccc(CNC2CCC(C(c3ccccc3)c3ccccc3)NC2)cc1` (stereo unspecified), the Selectivity in experiment [6] was found to be 0.85; in experiment [1] it was 22; in experiment [4] it was 23. Moreover, the 50% inhibitory concentration (IC50) amounted to 1040 nM in experiment [2], 40.5 nM in experiment [7], 47.5 nM in experiment [3] and 1110 nM in experiment [5].

For the compound `Fc1ccc(CCN2CCN3CC2CCC3C(c2ccccc2)c2ccccc2)cc1` (stereo unspecified), the Selectivity in experiment [1] was 4; in experiment [4], over 18. The IC50 in experiment [2] was 2550 nM; in experiment [3] it was 565 nM; in experiment [5], over 10000 nM.

On to `N#Cc1ccc(CNC2CCC(C(c3ccccc3)c3ccccc3)NC2)cc1` (stereo unspecified), for which the Selectivity in experiment [6] was 0.8; in experiment [1], 38; in experiment [4], 148. The IC50 came to 434 nM in experiment [2], 9.1 nM in experiment [7], 11.2 nM in experiment [3] and 1670 nM in experiment [5].

Take `CN(Cc1ccc(F)cc1)C1CCC(C(c2ccccc2)c2ccccc2)N(C)C1` (stereo unspecified): the Selectivity was 10 in experiment [1] and 31 in experiment [4]. The figures for the IC50 in experiment [2], in experiment [3] and in experiment [5] were 2360 nM, 225 nM and 7000 nM, respectively.

`CN1CCN2CC1CCC2C(c1ccccc1)c1ccccc1` (stereo unspecified): the Selectivity stood at 33 in experiment [1] and 13 in experiment [4]. Besides, the IC50 came to 157000 nM in experiment [2], 4710 nM in experiment [3] and 60100 nM in experiment [5].

In the case of `Fc1ccc(CNC2CCC(C(c3ccccc3)c3ccccc3)N(Cc3ccc(F)cc3)C2)cc1` (stereo unspecified), the values for the Selectivity in experiment [1] and in experiment [4] were 10 and 12, respectively. The results for the IC50 in experiment [2], in experiment [3] and in experiment [5] were 18900 nM, 1240 nM and 12600 nM, respectively.

As for `COc1ccc(CN2CCN3C[C@@H]2CC[C@H]3C(c2ccccc2)c2ccccc2)cc1`, the Selectivity is 0.8 in experiment [6], 384 in experiment [1] and over 444 in experiment [4]. For the same compound, the half-inhibitory concentration (IC50) was 8650 nM in experiment [2], 18.4 nM in experiment [7], 22.5 nM in experiment [3] and over 10000 nM in experiment [5].

As for `COc1ccc(CN2CCN3C[C@H]2CC[C@@H]3C(c2ccccc2)c2ccccc2)cc1`, the values for the Selectivity in experiment [6], in experiment [1] and in experiment [4] were 0.8, 20 and over 30, respectively. Moreover, the concentration for half-maximal inhibition (IC50) was 6630 nM in experiment [2], 269 nM in experiment [7], 329 nM in experiment [3] and over 10000 nM in experiment [5].

As for `Fc1ccc(CNC2CCC(C(c3ccccc3)c3ccccc3)NC2)cc1` (stereo unspecified), the results for the IC50 in experiment [7], in experiment [3] and in experiment [5] were 53.8 nM, 33.8 nM and 1420 nM, respectively.

Source of the values: ChEMBL document CHEMBL1137217, “Further structurally constrained analogues of cis-(6-benzhydrylpiperidin-3-yl)benzylamine with elucidation of bioactive conformation: discovery of 1,4-diazabicyclo[3.3.1]nonane derivatives and evaluation of their biological properties for the monoamine transporters” (J Med Chem, 2004).
